# Measurements taken from PubChem BioAssay (NCI).
#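 Following 48 hours of exposure in 96-well plates, responses at five concentrations were used to interpolate endpoints linearly. Here, GI50 denotes the concentration required for 50% inhibition of growth. Definition used: TGI = concentration required for complete inhibition of growth.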
# How the values were obtained:
# Assay in all cases: DTP human tumour cell line panel, 48 h
# 786-0 renal = test system: 786-0 renal
# A498 renal = test system: A498 renal
# A549 NSCLC = test system: A549 NSCLC
# ACHN renal = test system: ACHN renal
# BT-549 breast = test system: BT-549 breast
# CAKI-1 renal = test system: CAKI-1 renal
# CCRF-CEM leukemia = test system: CCRF-CEM leukemia
# DU-145 prostate = test system: DU-145 prostate
# EKVX NSCLC = test system: EKVX NSCLC
# HCC-2998 colon = test system: HCC-2998 colon
# HCT-116 colon = test system: HCT-116 colon
# HCT-15 colon = test system: HCT-15 colon
# HL-60(TB) leukemia = test system: HL-60(TB) leukemia
# HOP-92 NSCLC = test system: HOP-92 NSCLC
# HS 578T breast = test system: HS 578T breast
# HT29 colon = test system: HT29 colon
# IGROV1 ovarian = test system: IGROV1 ovarian
# K-562 leukemia = test system: K-562 leukemia
# KM12 colon = test system: KM12 colon
# LOX IMVI melanoma = test system: LOX IMVI melanoma
# M14 melanoma = test system: M14 melanoma
# MALME-3M melanoma = test system: MALME-3M melanoma
# MDA-MB-231 breast = test system: MDA-MB-231 breast
# MDA-MB-435 = test system: MDA-MB-435
# MOLT-4 leukemia = test system: MOLT-4 leukemia
# NCI-H226 lung = test system: NCI-H226 lung
# NCI-H23 lung = test system: NCI-H23 lung
# NCI-H460 lung = test system: NCI-H460 lung
# NCI-H522 lung = test system: NCI-H522 lung
# NCI/ADR-RES ovarian = test system: NCI/ADR-RES ovarian
# OVCAR-3 ovarian = test system: OVCAR-3 ovarian
# OVCAR-4 ovarian = test system: OVCAR-4 ovarian
# OVCAR-5 ovarian = test system: OVCAR-5 ovarian
# OVCAR-8 ovarian = test system: OVCAR-8 ovarian
# PC-3 prostate = test system: PC-3 prostate
# RPMI-8226 leukemia = test system: RPMI-8226 leukemia
# RXF 393 renal = test system: RXF 393 renal
# SF-268 CNS = test system: SF-268 CNS
# SF-295 CNS = test system: SF-295 CNS
# SF-539 CNS = test system: SF-539 CNS
# SK-MEL-2 melanoma = test system: SK-MEL-2 melanoma
# SK-MEL-28 melanoma = test system: SK-MEL-28 melanoma
# SK-MEL-5 melanoma = test system: SK-MEL-5 melanoma
# SN12C renal = test system: SN12C renal
# SNB-19 CNS = test system: SNB-19 CNS
# SNB-75 CNS = test system: SNB-75 CNS
# SR leukemia = test system: SR leukemia
# SW-620 colon = test system: SW-620 colon
# TK-10 renal = test system: TK-10 renal
# U251 CNS = test system: U251 CNS
# UACC-257 melanoma = test system: UACC-257 melanoma
# UACC-62 melanoma = test system: UACC-62 melanoma
# UO-31 renal = test system: UO-31 renal
# COLO 205 colon = test system: COLO 205 colon
# SK-OV-3 ovarian = test system: SK-OV-3 ovarian
# HOP-62 NSCLC = test system: HOP-62 NSCLC
smiles,measurement,setting,value
C=C1C(=O)O[C@H]2[C@H]1CC/C(COC(=O)NCc1cn(C)c3ccccc13)=C\CC[C@@]1(C)O[C@@H]21,GI50,786-0 renal,685 nM
same,TGI,786-0 renal,2040 nM
same,GI50,A498 renal,3.21 µM
same,TGI,A498 renal,12.1 µM
same,GI50,A549 NSCLC,2170 nM
same,TGI,A549 NSCLC,7.14 µM
same,GI50,ACHN renal,533 nM
same,TGI,ACHN renal,1810 nM
same,GI50,BT-549 breast,469 nM
same,TGI,BT-549 breast,1.88 µM
same,GI50,CAKI-1 renal,1320 nM
same,TGI,CAKI-1 renal,2640 nM
same,GI50,CCRF-CEM leukemia,335 nM
same,TGI,CCRF-CEM leukemia,2260 nM
same,GI50,DU-145 prostate,1260 nM
same,TGI,DU-145 prostate,2.55 µM
same,GI50,EKVX NSCLC,1850 nM
same,TGI,EKVX NSCLC,4.32 µM
same,GI50,HCC-2998 colon,2300 nM
same,TGI,HCC-2998 colon,5.33 µM
same,GI50,HCT-116 colon,288 nM
same,TGI,HCT-116 colon,1070 nM
same,GI50,HCT-15 colon,611 nM
same,TGI,HCT-15 colon,2170 nM
same,GI50,HL-60(TB) leukemia,490 nM
same,TGI,HL-60(TB) leukemia,2.86 µM
same,GI50,HOP-92 NSCLC,1460 nM
same,TGI,HOP-92 NSCLC,3.05 µM
same,GI50,HS 578T breast,3540 nM
same,TGI,HS 578T breast,35.7 µM
same,GI50,HT29 colon,1220 nM
same,TGI,HT29 colon,3 µM
same,GI50,IGROV1 ovarian,1580 nM
same,TGI,IGROV1 ovarian,3.31 µM
same,GI50,K-562 leukemia,369 nM
same,TGI,K-562 leukemia,9.26 µM
same,GI50,KM12 colon,2880 nM
same,TGI,KM12 colon,7.67 µM
same,GI50,LOX IMVI melanoma,594 nM
same,TGI,LOX IMVI melanoma,1990 nM
same,GI50,M14 melanoma,1450 nM
same,TGI,M14 melanoma,2920 nM
same,GI50,MALME-3M melanoma,1920 nM
same,TGI,MALME-3M melanoma,3640 nM
same,GI50,MDA-MB-231 breast,1680 nM
same,TGI,MDA-MB-231 breast,3.54 µM
same,GI50,MDA-MB-435,1280 nM
same,TGI,MDA-MB-435,3050 nM
same,GI50,MOLT-4 leukemia,1920 nM
same,TGI,MOLT-4 leukemia,5.98 µM
same,GI50,NCI-H226 lung,4.38 µM
same,TGI,NCI-H226 lung,20.9 µM
same,GI50,NCI-H23 lung,2010 nM
same,TGI,NCI-H23 lung,4.69 µM
same,GI50,NCI-H460 lung,2770 nM
same,TGI,NCI-H460 lung,10.1 µM
same,GI50,NCI-H522 lung,1.02 µM
same,TGI,NCI-H522 lung,2440 nM
same,GI50,NCI/ADR-RES ovarian,2370 nM
same,TGI,NCI/ADR-RES ovarian,12.3 µM
same,GI50,OVCAR-3 ovarian,1030 nM
same,TGI,OVCAR-3 ovarian,2300 nM
same,GI50,OVCAR-4 ovarian,2380 nM
same,TGI,OVCAR-4 ovarian,7.92 µM
same,GI50,OVCAR-5 ovarian,1720 nM
same,TGI,OVCAR-5 ovarian,3.96 µM
same,GI50,OVCAR-8 ovarian,1400 nM
same,TGI,OVCAR-8 ovarian,5.18 µM
same,GI50,PC-3 prostate,1760 nM
same,TGI,PC-3 prostate,4.79 µM
same,GI50,RPMI-8226 leukemia,696 nM
same,TGI,RPMI-8226 leukemia,4.22 µM
same,GI50,RXF 393 renal,1260 nM
same,TGI,RXF 393 renal,2700 nM
same,GI50,SF-268 CNS,1.84 µM
same,TGI,SF-268 CNS,4.95 µM
same,GI50,SF-295 CNS,3.27 µM
same,TGI,SF-295 CNS,13.9 µM
same,GI50,SF-539 CNS,1370 nM
same,TGI,SF-539 CNS,2700 nM
same,GI50,SK-MEL-2 melanoma,2550 nM
same,TGI,SK-MEL-2 melanoma,7.79 µM
same,GI50,SK-MEL-28 melanoma,1430 nM
same,TGI,SK-MEL-28 melanoma,3.01 µM
same,GI50,SK-MEL-5 melanoma,1410 nM
same,TGI,SK-MEL-5 melanoma,2740 nM
same,GI50,SN12C renal,1210 nM
same,TGI,SN12C renal,3.01 µM
same,GI50,SNB-19 CNS,2.84 µM
same,TGI,SNB-19 CNS,13 µM
same,GI50,SNB-75 CNS,4160 nM
same,TGI,SNB-75 CNS,17600 nM
same,GI50,SR leukemia,395 nM
same,TGI,SR leukemia,4.61 µM
same,GI50,SW-620 colon,524 nM
same,TGI,SW-620 colon,1980 nM
same,GI50,TK-10 renal,1800 nM
same,TGI,TK-10 renal,3.43 µM
same,GI50,U251 CNS,1960 nM
same,TGI,U251 CNS,5.24 µM
same,GI50,UACC-257 melanoma,1560 nM
same,TGI,UACC-257 melanoma,4.03 µM
same,GI50,UACC-62 melanoma,1.69 µM
same,TGI,UACC-62 melanoma,4.33 µM
same,GI50,UO-31 renal,1340 nM
same,TGI,UO-31 renal,2620 nM
CNc1ccc(C(=O)CC(O)CCC(C)C2OC(=O)CC(O)CC(=O)CC(O)CC(O)CC(O)CC(O)CC3(O)CC(O)C(C(=O)N4CCOCC4)C(CC(OC4OC(C)C(O)C(N)C4O)/C=C/C=C/C=C/C=C\C=C/C=C/C=C/C2C)O3)cc1 (stereo not drawn),TGI,786-0 renal,> 100000 nM
same,TGI,A549 NSCLC,> 100 µM
same,TGI,COLO 205 colon,> 100 µM
same,TGI,DU-145 prostate,3.31 µM
same,TGI,HCT-116 colon,> 100000 nM
same,TGI,HL-60(TB) leukemia,> 100 µM
same,TGI,K-562 leukemia,> 100 µM
same,TGI,KM12 colon,0.747 µM
same,TGI,MALME-3M melanoma,400 nM
same,TGI,MDA-MB-435,798 nM
same,TGI,MOLT-4 leukemia,> 100 µM
same,TGI,NCI-H226 lung,0.553 µM
same,TGI,NCI-H522 lung,550 nM
same,TGI,OVCAR-5 ovarian,> 100 µM
same,TGI,OVCAR-8 ovarian,> 100 µM
same,TGI,RXF 393 renal,637 nM
same,TGI,SK-MEL-2 melanoma,8.55 µM
same,TGI,SK-MEL-5 melanoma,462 nM
same,TGI,SK-OV-3 ovarian,> 100 µM
same,TGI,SW-620 colon,> 100000 nM
same,TGI,UACC-257 melanoma,0.384 µM
Cn1cc(-c2nc(-c3c[nH]c4ccncc34)cs2)c2cc(Br)ccc21,GI50,DU-145 prostate,1820 nM
same,TGI,DU-145 prostate,3.28 µM
same,GI50,MDA-MB-231 breast,1410 nM
same,TGI,MDA-MB-231 breast,2.84 µM
same,GI50,OVCAR-5 ovarian,1810 nM
same,TGI,OVCAR-5 ovarian,3.27 µM
same,GI50,SK-MEL-2 melanoma,2000 nM
same,TGI,SK-MEL-2 melanoma,3.62 µM
same,GI50,SK-MEL-5 melanoma,1600 nM
same,TGI,SK-MEL-5 melanoma,2950 nM
same,GI50,SNB-75 CNS,1230 nM
same,TGI,SNB-75 CNS,2540 nM
same,GI50,UACC-257 melanoma,1990 nM
same,TGI,UACC-257 melanoma,3.52 µM
COc1ccc2[nH]c(O)c(N=NC(=O)c3oc4ccccc4c3C)c2c1,GI50,BT-549 breast,5380 nM
same,TGI,BT-549 breast,33.7 µM
same,GI50,EKVX NSCLC,2940 nM
same,TGI,EKVX NSCLC,> 100 µM
same,GI50,HL-60(TB) leukemia,> 100000 nM
same,TGI,HL-60(TB) leukemia,> 100 µM
same,GI50,HOP-62 NSCLC,1920 nM
same,TGI,HOP-62 NSCLC,4.02 µM
same,GI50,HS 578T breast,2410 nM
same,TGI,HS 578T breast,7.72 µM
same,GI50,LOX IMVI melanoma,3160 nM
same,TGI,LOX IMVI melanoma,> 100000 nM
same,GI50,MDA-MB-231 breast,2070 nM
same,TGI,MDA-MB-231 breast,5.1 µM
same,GI50,NCI-H23 lung,1860 nM
same,TGI,NCI-H23 lung,4.43 µM
same,GI50,NCI-H522 lung,6.07 µM
same,TGI,NCI-H522 lung,> 100000 nM
same,GI50,OVCAR-8 ovarian,3220 nM
same,TGI,OVCAR-8 ovarian,> 100 µM
same,GI50,SF-268 CNS,5.18 µM
same,TGI,SF-268 CNS,56.8 µM
same,GI50,SK-MEL-2 melanoma,2560 nM
same,TGI,SK-MEL-2 melanoma,6.62 µM
same,GI50,SN12C renal,2820 nM
same,TGI,SN12C renal,> 100 µM
same,GI50,SNB-19 CNS,3.45 µM
same,TGI,SNB-19 CNS,16.2 µM
same,GI50,SNB-75 CNS,1250 nM
same,TGI,SNB-75 CNS,2750 nM
same,GI50,UACC-62 melanoma,5.19 µM
same,TGI,UACC-62 melanoma,> 100 µM
